US20260240644A1, “BIOPOLYMER-BASED TYMPANOSTOMY TUBES WITH PROGRAMMABLE, TUNABLE, AND ON-DEMAND DEGRADATION” (Trustees of Tufts College, priority 2023, published 2026)

System: Xen29, a Staphylococcus aureus strain
Test: Kirby Bauer disc diffusion assay of Ciprodex-loaded chitosan
Assay type: cell-based
Conditions: loaded in chitosan; growth inhibition of Xen29
Excerpt: FIG. 27 depicts results of the Kirby Bauer disc diffusion assay.
To estimate the concentration of ciprofloxacin released by the chitosan, a standard curve was established using blank paper discs and known dilutions of Ciprodex.

## O=C(O)c1cn(C2CC2)c2cc(N3CCNCC3)c(F)cc2c1=O [Ciprofloxacin, ciprofloxacin]
  bioactivity of loaded Ciprofloxacin: maintained its bioactivity
